Laboratory results published in US20020058637A1, “Methods of inhibiting tau-protein kinase I activity, inhibiting neuronal cell death and treating alzheimer's disease and tau-protein kinase I” (priority 1993, published 2002).
“Also recorded” adds a separate entry of the source.

How the values were obtained:
hippocampus cells = test: Inhibiting action for the death of cranial nerve cells by AβP (living cell count, phase contrast microscope); assay type: cell-based, rat; details: for Numbers of Living Cells (%) After 6 hours / Numbers of Living Cells (%) After 21 hours: rat hippocampus cell culture, AβP 20 micromoles, oligonucleotide 1 micromole per 1 ml medium, 37° C., percentage to control
Source text: Numbers of many normal and healthy cells were counted by a phase contrast microscope as an index of the living cells after the treatment. Normal cells mean those which have morphologically flat circumference and many nerve cell projections while the degenerated cells were judged by checking the irregular shape, degeneration of the neural projections, etc. Numbers of the living cells were counted in a well. In the standard culture liquid, the cell numbers were not less than 400 per well. The result was confirmed by an immunohistochemical means.
The primary culture medium of hippocampus of rats was prepared in accordance with a method described in Brain Res., 126, 397-425 (1977). Thus, the hippocampus tissues were collected from embryo of the rats of 18 days after fertilization and digested in papain (protease) (10 U/ml) at 37° C. for 20 minutes. The resulting cells were added to a Dulbecco's modified Eagle's medium supplied with 5% bovine fetus serum, 5% horse serum, 10 micrograms/ml insulin, 0.1 mg/ml transferrin, 1 microgram/ml aprotinin, 1 mM sodium pyruvate and 84 micrograms/ml gentamycin. This was planted to a well for tissue culture covered with poly-L-lysine at the density of 2×10^5 cells/cm^2, cultured for three days and treated with 1 micromole of cytosine-beta-arabinofuranoside for 24 hours and the cells of the fifth day of the culture were used.
The culture medium of the hippocampus prepared by the above-mentioned method was subjected to the following treatments (b) to (d), numbers of the living cells with an elapse of time were counted and the result is given in Table
(a) Nontreated culture medium (control):
(b) TPKI-antisense (1 micromole) was added to 1 ml of the cell culture medium and, after five minutes, 20 micromoles of AβP was added followed by keeping at 37° C. for 24 hours.
(c) AβP (20 micromoles) was added to 1 ml of the cell cuture medium followed by keeping at 37° C. for 24 hours.
(d) TPKI-sense (1 micromole) was added to 1 ml of the cell culture medium and, after five minutes, 20 micromoles of AμP was added followed by keeping at 37° C. for 24 hours.

tau-protein = test: Phosphorylation of tau-protein by recombinant human TPK-I expressed in E. coli (phosphorylating method I); assay type: biochemical, bovine; details: room temperature, 20 hours
Procedure: tau-Protein extracted from bovine brain followed by purification (2 microliters; 1.5 mg/ml concentration) and 1 microliters of the above partially-purified enzyme solution were mixed. To the mixture was added a solution containing 2 mM adenosinetriphosphate and 2 mM magnesium acetate and [gamma-32P]adenosinetriphosphate so that the phosphorylation of tau-protein was conducted at room temperature for 20 hours whereby the amount of phosphoric acid incorporated in tau-protein was evaluated.

TPK-I = test: Phosphorylation of tau-protein by extract of treated hippocampus cells (phosphorylating activity of TPK-I); assay type: cell-based, rat; details: 24 hours
Procedure: Hippocampus cells were collected from the culture medium by washing with an ice-cooled phosphate buffer for three times. The cells were suspended in a buffer A (pH: 6.8) which contained 1 mM EGTA, 0.5 mM magnesium acetate and 20 mM 2-(N-morpholino)-ethanesulfonic acid containing a phosphatase inhibitor ([…]; manufactured by Seikagaku Kogyo) and a protease inhibitor (1 mM phenylmethylsulfonyl fluoride and each 1 micro gram/ml of leupeptin, pepstatin and aprotinin), homogenized and centrifuged at 14,000 rpm for one hour and the supernatant liquid was used for checking the phosphorylation.
The rat tau-protein expressed in E. coli BL21 by a gene recombination was purified by a method described in J. Biol. Chem., 267, 10897-10901 (1992).
The hippocampus extract (1 microliter) was added to a solution of the rat tau-protein (400 micrograms/ml) dissolved in a buffer A containing 1 mM [τ-^32P]ATP (10-20 Ci/mmole) and then 10 micromoles of okadaic acid was added to make the final volume 10 microliters. This was incubated at 37° C. for three hours and the reaction was stopped by adding a buffer for electrophoresis. After subjecting to a 10% polyacrylamide gel electrophoresis, the ^32p in the tau-protein was observed by a laser image analyzer (Fuji BAS 2000).

Row | Substance | Numbers of Living Cells (%) After 6 hours (hippocampus cells) | Numbers of Living Cells (%) After 21 hours (hippocampus cells) | phosphoric acid incorporated into one molecule of tau-protein (tau-protein) | cytotoxity by AβP observed with phase contrast microscope (hippocampus cells; TPKI-antisense and AβP on hippocampus cells, after 24 hours, magnifying power 400) | phosphorylating activity of TPK-I relative to the case in which only AβP was acted (TPK-I; TPKI-antisense and AβP versus only AβP) | Phosphorylating Activity of TPKI (TPK-I; hippocampus cell supernatant, AβP 20 micromoles, TPKI-antisense 1 micromole, rat tau-protein substrate)
1 | 5′-ATGTCGGGGCGACCGAGA-3′ (listed as DNA, chemistry not given here) [TPKI-Sense, tested together with AβP, reference compound] | 49.5% | 17.1% | – | – | – | –
2 | partially-purified TPK-I: recombinant human-originated tau-protein kinase I (Seq. ID No. 1) expressed in E. coli BL21 (DE3), partially purified | – | – | 1.2 mol | – | – | –
3 | 5′-TCTCGGTCGCCCCGACAT-3′ (listed as DNA, chemistry not given here) [TPKI-Antisense, tested together with AβP] | 83.0% | 72.6% | – | little being similar to the controls; also recorded: little and similar to the case of the control | about one half; also recorded: about one-half | 31.6 unit/mg protein
